This is an account of results in patent publication US6727264B1 (Synaptic Pharmaceutical Corporation, priority 2001, dated 2004).

For orientation: Ki means the equilibrium dissociation constant of an inhibitor or competing ligand from its target.

For one assay, the target named is rat MCH-1 (Rattus norvegicus, UniProt P97639). The assay can be described thus: Radioligand binding assay at cloned rat MCH1 receptor ([3H] Compound A). The settings on record: cloned rat MCH1 receptor, membranes from Peakr293 cells, 0.08 nM [3H] Compound A; read-out: Ki (nM) rMCH1. The arrangement: host or cells: Peak rapid 293 (Peakr293) cells, transient calcium phosphate transfection, membranes.
rat MCH-1, sequence (P97639 whole entry): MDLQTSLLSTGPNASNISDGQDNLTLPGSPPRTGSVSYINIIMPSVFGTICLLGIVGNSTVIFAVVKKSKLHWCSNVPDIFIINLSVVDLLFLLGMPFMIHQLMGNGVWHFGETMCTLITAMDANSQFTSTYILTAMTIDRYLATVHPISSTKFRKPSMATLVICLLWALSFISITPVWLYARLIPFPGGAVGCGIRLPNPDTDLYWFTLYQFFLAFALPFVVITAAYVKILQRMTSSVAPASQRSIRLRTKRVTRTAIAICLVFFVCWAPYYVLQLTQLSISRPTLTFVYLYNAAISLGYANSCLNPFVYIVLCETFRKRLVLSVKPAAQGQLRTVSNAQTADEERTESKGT
As to `CC(C)C(=O)Nc1cccc(C2CCN(Cc3cn(-c4ccccc4C(F)(F)F)c4ccccc34)CC2)c1` [Example 448], the inhibitory constant (Ki) was 61 nM.

`COc1ccc2[nH]cc(CN3CCC(c4cccc(NC(=O)C(C)C)c4)CC3)c2c1` [Example 449]: the inhibitory constant (Ki) stood at 623 nM.

The same assay, now with this note: cloned rat MCH1 receptor; 0.08 nM [3H] Compound A; Peakr293 cell membranes; read-out: Ki (nM) rMCH1.
`Cc1[nH]c2ccc(Cl)cc2c1CN1CCC(c2cccc(NC(=O)C(C)C)c2)CC1` [Example 435]: the Ki was 215 nM. Still for that read-out and setting: the value for `CC(C)C(=O)Nc1cccc(C2CCN(Cc3c[nH]c4ccc(C#N)cc34)CC2)c1` [Example 436] was 434 nM; that for `Cc1ccc2[nH]c(-c3ccccc3)c(CN3CCC(c4cccc(NC(=O)C(C)C)c4)CC3)c2c1` [Example 437] was 552 nM; that for `CC(C)C(=O)Nc1cccc(C2CCN(Cc3cn(-c4ccc([N+](=O)[O-])cc4)c4ccccc34)CC2)c1` [Example 438] was 1.3 nM.

`CC(C)C(=O)Nc1cccc(C2CCN(Cc3cn(-c4ccccc4F)c4ccccc34)CC2)c1` [Example 439]: the Ki was 8.5 nM. Same read-out and setting: the value for `COc1cc2[nH]cc(CN3CCC(c4cccc(NC(=O)C(C)C)c4)CC3)c2cc1OC` [Example 440] was 107 nM; that for `Cc1cccc(-n2cc(CN3CCC(c4cccc(NC(=O)C(C)C)c4)CC3)c3ccccc32)c1` [Example 441] was 10.1 nM.

`CC(C)C(=O)Nc1cccc(C2CCN(Cc3cn(-c4cccc(C(F)(F)F)c4)c4ccccc34)CC2)c1` [Example 442]: the Ki amounted to 7.8 nM. On the same count and under the same terms, the value for `COc1ccc(-n2cc(CN3CCC(c4cccc(NC(=O)C(C)C)c4)CC3)c3ccccc32)cc1` [Example 443] was 23.4 nM; that for `COc1ccc2[nH]c(-c3ccccc3)c(CN3CCC(c4cccc(NC(=O)C(C)C)c4)CC3)c2c1` [Example 444] was 545 nM. Same read-out and setting: the value for `Cc1ccc2[nH]cc(CN3CCC(c4cccc(NC(=O)C(C)C)c4)CC3)c2c1` [Example 445] was 486 nM. For the compound `CC(C)C(=O)Nc1cccc(C2CCN(Cc3cn(-c4ccccc4[N+](=O)[O-])c4ccccc34)CC2)c1` [Example 446], the Ki worked out at 17.9 nM.

Take `COc1ccccc1-n1cc(CN2CCC(c3cccc(NC(=O)C(C)C)c3)CC2)c2ccccc21` [Example 447]: the Ki is 9.8 nM. `CC(C)C(=O)Nc1cccc(C2CCN(Cc3cn(-c4ccccc4C(F)(F)F)c4ccccc34)CC2)c1` [Example 448]: the Ki turned out to be 61 nM. `COc1ccc2[nH]cc(CN3CCC(c4cccc(NC(=O)C(C)C)c4)CC3)c2c1` [Example 449]: the Ki was found to be 623 nM.

`CC(C)C(=O)Nc1cccc(C2CCN(Cc3cn(-c4ccc(F)cc4)c4ccccc34)CC2)c1` [Example 450]: the inhibition constant Ki was determined as 7.1 nM.

Take `COc1cccc(-n2cc(CN3CCC(c4cccc(NC(=O)C(C)C)c4)CC3)c3ccccc32)c1` [Example 451]: the Ki was 18.7 nM.

Take `Cc1ccccc1-n1cc(CN2CCC(c3cccc(NC(=O)C(C)C)c3)CC2)c2ccccc21` [Example 452]: the inhibition constant (Ki) was 12.7 nM.

With `CCOC(=O)c1[nH]c2ccc(OC)cc2c1CN1CCC(c2cccc(NC(=O)C(C)C)c2)CC1` [Example 453, ETHYL 3-({4-[3-(ISOBUTYRYLAMINO)PHENYL]-1-PIPERIDINYL}METHYL)-5-METHOXY-1H-INDOLE-2-CARBOXYLATE], the Ki stood at 195 nM.

As for `CC(C)C(=O)Nc1cccc(C2CCN(Cc3c[nH]c4ccc(F)cc34)CC2)c1` [Example 454], the Ki was 772 nM. Take `CCC(=O)Nc1cccc(C2CCN(Cc3cn(-c4ccc(Cl)cc4)c4ccccc34)CC2)c1` [Example 455]: the Ki turned out to be 10.6 nM. Take `CCC(=O)Nc1cccc(C2CCN(Cc3cn(-c4cccc(Cl)c4)c4ccccc34)CC2)c1` [Example 456]: the Ki worked out at 28 nM. On the same count and under the same terms, the figure for `O=C(Nc1cccc(C2CCN(Cc3cn(-c4ccccc4Cl)c4ccccc34)CC2)c1)C1CC1` [Example 457] is 27.4 nM; for `CC(C)C(=O)Nc1cccc(C2CCN(Cc3cn(-c4cccc(Cl)c4)c4ccccc34)CC2)c1` [Example 458] it is 15.3 nM. The same measure, in the same setting: the value for `CC(C)C(=O)Nc1cccc(C2CCN(Cc3cn(-c4ccc(Cl)cc4)c4ccccc34)CC2)c1` [Example 459] was 10.4 nM; that for `CC(C)C(=O)Nc1cccc(C2CCN(Cc3cn(-c4ccccc4Cl)c4ccccc34)CC2)c1` [Example 460] was 9.1 nM; that for `CCC(=O)Nc1cccc(C2CCN(Cc3cn(-c4ccccc4Cl)c4ccccc34)CC2)c1` [Example 461] was 35.6 nM. Turning to `O=C(Nc1cccc(C2CCN(Cc3cn(-c4ccc(Cl)cc4)c4ccccc34)CC2)c1)C1CC1` [Example 462], the Ki turned out to be 12.4 nM. Still for that read-out and setting: the figure for `O=C(Nc1cccc(C2CCN(Cc3cn(-c4cccc(Cl)c4)c4ccccc34)CC2)c1)C1CC1` [Example 463] is 17.2 nM.

As to `CCC(=O)Nc1cccc(C2CCN(Cc3cn(-c4ccccc4)c4ccccc34)CC2)c1` [Example 464], the Ki turned out to be 84.1 nM. The same measure, in the same setting: the figure for `O=C(Nc1cccc(C2CCN(Cc3cn(-c4ccccc4)c4ccccc34)CC2)c1)C1CC1` [Example 465] is 10.7 nM; for `CCC(=O)Nc1cccc(C2CCN(Cc3c[nH]c4cc(F)ccc34)CC2)c1` [Example 468] it is 912 nM; for `O=C(Nc1cccc(C2CCN(Cc3c[nH]c4cc(F)ccc34)CC2)c1)C1CC1` [Example 469] it is 479 nM. On the same count and under the same terms, the value for `CC(C)C(=O)Nc1cccc(C2CCN(Cc3c[nH]c4cc(F)ccc34)CC2)c1` [Example 470] was 654 nM; that for `CC(C)C(=O)Nc1cccc(C2CCN(Cc3cn(-c4ccc(F)cc4)c4cc(Cl)ccc34)CC2)c1` [Example 471] was 4.3 nM.

As to `CCC(=O)Nc1cccc(C2CCN(Cc3cn(-c4ccccc4F)c4cc(Cl)ccc34)CC2)c1` [Example 472], the Ki was determined as 12.2 nM.

On to `O=C(Nc1cccc(C2CCN(Cc3cn(-c4ccccc4F)c4cc(Cl)ccc34)CC2)c1)C1CC1` [Example 473], for which the Ki was 11.3 nM. For `CC(C)C(=O)Nc1cccc(C2CCN(Cc3cn(-c4ccccc4F)c4cc(Cl)ccc34)CC2)c1` [Example 474], the Ki came out at 13.3 nM.

`CCC(=O)Nc1cccc(C2CCN(Cc3cn(-c4ccc(Cl)cc4)c4cc(Cl)ccc34)CC2)c1` [Example 475]: the inhibition constant (Ki) turned out to be 12.4 nM.

With `O=C(Nc1cccc(C2CCN(Cc3cn(-c4ccc(Cl)cc4)c4cc(Cl)ccc34)CC2)c1)C1CC1` [Example 476], the Ki came to 12.7 nM. The same measure, in the same setting: the figure for `CC(C)C(=O)Nc1cccc(C2CCN(Cc3cn(-c4ccc(Cl)cc4)c4cc(Cl)ccc34)CC2)c1` [Example 477] is 14.9 nM.

As for `CCC(=O)Nc1cccc(C2CCN(Cc3cn(-c4cccc(Cl)c4)c4cc(Cl)ccc34)CC2)c1` [Example 478], the Ki is 11.7 nM. Turning to `O=C(Nc1cccc(C2CCN(Cc3cn(-c4cccc(Cl)c4)c4cc(Cl)ccc34)CC2)c1)C1CC1` [Example 479], the inhibition constant (Ki) is 8.1 nM. With `CC(C)C(=O)Nc1cccc(C2CCN(Cc3cn(-c4cccc(Cl)c4)c4cc(Cl)ccc34)CC2)c1` [Example 480], the Ki stood at 9 nM.

As to `O=C(Nc1cccc(C2CCN(Cc3c[nH]c4ccc(F)cc34)CC2)c1)C1CC1` [Example 481], the Ki worked out at 664 nM. Same read-out and setting: the value for `Cc1ccc2c(CN3CCC(c4cccc(NC(=O)C(C)C)c4)CC3)c[nH]c2c1` [Example 495] was 95.1 nM. For `CC(C)C(=O)Nc1cccc(C2CCN(Cc3c[nH]c4cc(OCc5ccccc5)ccc34)CC2)c1` [Example 496], the Ki turned out to be 288 nM. On the same count and under the same terms, the value for `COc1ccc2c(CN3CCC(c4cccc(NC(=O)C(C)C)c4)CC3)c[nH]c2c1` [Example 497] was 97.7 nM; that for `COC(=O)c1ccc2c(CN3CCC(c4cccc(NC(=O)C(C)C)c4)CC3)c[nH]c2c1` [Example 498, METHYL 3-({4-[3-(ISOBUTYRYLAMINO)PHENYL]-1-PIPERIDINYL}METHYL)-1H-INDOLE-6-CARBOXYLATE] was 52.2 nM; that for `CC(C)C(=O)Nc1cccc(C2CCN(Cc3c[nH]c4cc(C(F)(F)F)ccc34)CC2)c1` [Example 499] was 11.9 nM.

`CC(C)C(=O)Nc1cccc(C2CCN(Cc3cn(-c4cccnc4)c4ccccc34)CC2)c1` [Example 500]: the Ki came out at 29.4 nM. Take `CC(C)C(=O)Nc1cccc(C2CCN(Cc3cn(-c4ccccn4)c4ccccc34)CC2)c1` [Example 501]: the Ki was determined as 22.1 nM.

Consider `CC(C)C(=O)Nc1cccc(C2CCN(Cc3cn(-c4ccccc4)c4cc(F)ccc34)CC2)c1` [Example 502], for which the Ki is 4.6 nM. The same measure, in the same setting: the figure for `CC(C)C(=O)Nc1cccc(C2CCN(Cc3cn(-c4ccccc4)c4cc(Cl)ccc34)CC2)c1` [Example 503] is 6 nM. Still for that read-out and setting: the figure for `CC(C)C(=O)Nc1cccc(C2CCN(Cc3cn(-c4ccccc4)c4cc(OCc5ccccc5)ccc34)CC2)c1` [Example 504] is 22.5 nM; for `Cc1ccc2c(CN3CCC(c4cccc(NC(=O)C(C)C)c4)CC3)cn(-c3ccccc3)c2c1` [Example 505] it is 6.5 nM. The same measure, in the same setting: the value for `COC(=O)c1ccc2c(CN3CCC(c4cccc(NC(=O)C(C)C)c4)CC3)cn(-c3ccccc3)c2c1` [Example 506, METHYL 3-({4-[3-(ISOBUTYRYLAMINO)PHENYL]-1-PIPERIDINYL}METHYL)-1-PHENYL-1H-INDOLE-6-CARBOXYLATE] was 2.5 nM. Take `CC(C)C(=O)Nc1cccc(C2CCN(Cc3c[nH]c4cc([N+](=O)[O-])ccc34)CC2)c1` [Example 507]: the Ki was determined as 57.9 nM. The same measure, in the same setting: the figure for `CC(C)C(=O)Nc1cccc(C2CCN(Cc3cn(-c4ccccc4)c4cc(C(F)(F)F)ccc34)CC2)c1` [Example 508] is 8.5 nM; for `Cc1cccc2c(CN3CCC(c4cccc(NC(=O)C(C)C)c4)CC3)cn(-c3ccccc3)c12` [Example 509] it is 24.3 nM; for `COc1cccc2c(CN3CCC(c4cccc(NC(=O)C(C)C)c4)CC3)c[nH]c12` [Example 510] it is 305 nM. Consider `COc1cccc2c(CN3CCC(c4cccc(NC(=O)C(C)C)c4)CC3)cn(-c3ccccc3)c12` [Example 511], for which the Ki amounted to 6 nM.

Take `CC(C)C(=O)Nc1cccc(C2CCN(Cc3cn(-c4ccccc4)c4c(Cl)cccc34)CC2)c1` [Example 512]: the Ki was 42.7 nM. On the same count and under the same terms, the figure for `CC(C)C(=O)Nc1cccc(C2CCN(Cc3c[nH]c4c([N+](=O)[O-])cccc34)CC2)c1` [Example 513] is 179 nM; for `O=C(Nc1cccc(C2CCN(Cc3c[nH]c4c([N+](=O)[O-])cccc34)CC2)c1)C1CC1` [Example 514] it is 151 nM.
